Among the data in ChEMBL document CHEMBL5715954, “Silencing c-Myc translation as a therapeutic strategy through targeting PI3Kδ and CK1ε in hematological malignancies” (Blood, 2017) are Activity values, retold here.

Common to all, as to design: scale not given: the % may be the effect or the level left
Experiment [1] deals with Activated CDC42 kinase 1 (Homo sapiens) (UniProt Q07912). The experiment in a line: Inhibition of human ACK1 assessed as enzyme activity at 1 uM using EAIYAAPFAKKK as substrate preincubated for 20 mins followed by [gamma-33P]-ATP addition and measured after 120 mins by radiometric Hot-SpotSM Kinase assay relative to control.
The target in experiment [2] is RAC-alpha serine/threonine-protein kinase (Homo sapiens) (UniProt P31749). The experiment in a line: Inhibition of human AKT1 assessed as enzyme activity at 1 uM using KGSGSGRPRTSSFAEG as substrate preincubated for 20 mins followed by [gamma-33P]-ATP addition and measured after 120 mins by radiometric Hot-SpotSM Kinase assay relative to control.
Experiment [3] addresses Dual specificity tyrosine-phosphorylation-regulated kinase 1A (Homo sapiens) (UniProt Q13627). The experiment in a line: Inhibition of human DYRK1/DYRK1A assessed as enzyme activity at 1 uM using RRRFRPASPLRGPPK as substrate preincubated for 20 mins followed by [gamma-33P]-ATP addition and measured after 120 mins by radiometric Hot-SpotSM Kinase assay relative to control.

Experiment [4] concerns the target Tyrosine-protein kinase Fyn (Homo sapiens) (UniProt P06241). The experiment in a line: Inhibition of human FYN assessed as enzyme activity at 1 uM using poly[Glu:Tyr] (4:1) as substrate preincubated for 20 mins followed by [gamma-33P]-ATP addition and measured after 120 mins by radiometric Hot-SpotSM Kinase assay relative to control.
For experiment [5], the target named is T1, Mitogen-activated protein kinase kinase kinase kinase 3 (Homo sapiens) (UniProt Q8IVH8).
T1 sequence (whole entry): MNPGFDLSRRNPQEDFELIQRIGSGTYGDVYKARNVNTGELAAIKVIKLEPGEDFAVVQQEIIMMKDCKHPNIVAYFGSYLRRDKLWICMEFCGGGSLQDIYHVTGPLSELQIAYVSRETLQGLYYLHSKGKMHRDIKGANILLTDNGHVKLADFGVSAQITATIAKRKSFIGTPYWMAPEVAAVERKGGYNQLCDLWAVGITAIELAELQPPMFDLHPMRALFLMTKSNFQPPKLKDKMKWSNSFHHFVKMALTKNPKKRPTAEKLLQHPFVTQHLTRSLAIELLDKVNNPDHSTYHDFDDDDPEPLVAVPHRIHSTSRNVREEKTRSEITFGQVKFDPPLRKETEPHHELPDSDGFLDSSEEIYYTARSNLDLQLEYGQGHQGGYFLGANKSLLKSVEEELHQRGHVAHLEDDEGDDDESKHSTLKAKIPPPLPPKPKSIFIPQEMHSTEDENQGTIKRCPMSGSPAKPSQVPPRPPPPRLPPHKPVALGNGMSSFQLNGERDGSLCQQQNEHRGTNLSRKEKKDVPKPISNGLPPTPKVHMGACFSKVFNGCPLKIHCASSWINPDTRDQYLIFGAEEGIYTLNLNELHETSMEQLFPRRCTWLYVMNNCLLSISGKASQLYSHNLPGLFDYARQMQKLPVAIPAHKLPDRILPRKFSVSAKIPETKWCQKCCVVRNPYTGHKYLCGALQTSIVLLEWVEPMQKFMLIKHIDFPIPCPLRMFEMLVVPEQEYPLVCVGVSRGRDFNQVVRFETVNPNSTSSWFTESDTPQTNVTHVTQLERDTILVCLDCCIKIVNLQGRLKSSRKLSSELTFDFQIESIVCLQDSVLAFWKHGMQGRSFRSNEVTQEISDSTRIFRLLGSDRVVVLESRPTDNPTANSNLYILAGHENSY
The experiment in a line: Inhibition of human GLK/MAP4K3 assessed as enzyme activity at 1 uM using myelin basic protein as substrate preincubated for 20 mins followed by [gamma-33P]-ATP addition and measured after 120 mins by radiometric Hot-SpotSM Kinase assay relative to control.

In experiment [6] the target is Serine/threonine-protein kinase PAK 5 (Homo sapiens) (UniProt Q9P286). The experiment in a line: Inhibition of human PAK5 assessed as enzyme activity at 1 uM using RRRLSFAEPG as substrate preincubated for 20 mins followed by [gamma-33P]-ATP addition and measured after 120 mins by radiometric Hot-SpotSM Kinase assay relative to control.
In experiment [7] the target is Serine/threonine-protein kinase pim-2 (Homo sapiens) (UniProt Q9P1W9). The experiment in a line: Inhibition of human PIM2 assessed as enzyme activity at 1 uM using RSRHSSYPAGT as substrate preincubated for 20 mins followed by [gamma-33P]-ATP addition and measured after 120 mins by radiometric Hot-SpotSM Kinase assay relative to control.
Experiment [8] concerns the target T2, Serine/threonine-protein kinase ULK1 (Homo sapiens) (UniProt O75385).
T2 sequence (whole entry): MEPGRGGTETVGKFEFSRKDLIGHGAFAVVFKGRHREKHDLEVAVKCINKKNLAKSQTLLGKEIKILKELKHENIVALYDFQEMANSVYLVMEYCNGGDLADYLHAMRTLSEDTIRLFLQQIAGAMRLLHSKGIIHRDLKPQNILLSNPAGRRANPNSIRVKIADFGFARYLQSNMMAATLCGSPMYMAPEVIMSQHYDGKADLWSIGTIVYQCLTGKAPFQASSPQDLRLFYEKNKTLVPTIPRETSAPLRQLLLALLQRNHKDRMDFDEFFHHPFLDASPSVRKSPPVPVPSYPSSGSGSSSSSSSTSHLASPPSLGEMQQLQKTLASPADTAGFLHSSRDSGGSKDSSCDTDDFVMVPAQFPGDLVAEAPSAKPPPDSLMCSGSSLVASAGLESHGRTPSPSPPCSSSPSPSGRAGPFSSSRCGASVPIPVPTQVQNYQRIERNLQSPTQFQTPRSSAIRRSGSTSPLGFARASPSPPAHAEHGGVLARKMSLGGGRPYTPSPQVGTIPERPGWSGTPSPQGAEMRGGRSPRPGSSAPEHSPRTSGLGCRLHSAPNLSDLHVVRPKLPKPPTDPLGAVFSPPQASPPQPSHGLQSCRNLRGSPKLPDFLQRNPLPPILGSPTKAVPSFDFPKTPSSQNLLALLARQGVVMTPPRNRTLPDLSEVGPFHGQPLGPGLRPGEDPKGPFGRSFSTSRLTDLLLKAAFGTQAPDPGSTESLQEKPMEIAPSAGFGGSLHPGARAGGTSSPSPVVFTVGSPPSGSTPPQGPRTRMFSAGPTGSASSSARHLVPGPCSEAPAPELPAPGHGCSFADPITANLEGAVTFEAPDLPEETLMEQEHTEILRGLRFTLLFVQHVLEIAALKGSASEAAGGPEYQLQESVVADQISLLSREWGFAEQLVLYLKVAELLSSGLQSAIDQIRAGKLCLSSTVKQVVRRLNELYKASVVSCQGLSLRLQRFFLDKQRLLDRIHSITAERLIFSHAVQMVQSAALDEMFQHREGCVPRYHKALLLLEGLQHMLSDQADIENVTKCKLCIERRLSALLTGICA
The experiment in a line: Inhibition of human ULK1 assessed as enzyme activity at 1 uM using myelin basic protein as substrate preincubated for 20 mins followed by [gamma-33P]-ATP addition and measured after 120 mins by radiometric Hot-SpotSM Kinase assay relative to control.

Sequence of RAC-alpha serine/threonine-protein kinase (Homo sapiens) (P31749 whole entry): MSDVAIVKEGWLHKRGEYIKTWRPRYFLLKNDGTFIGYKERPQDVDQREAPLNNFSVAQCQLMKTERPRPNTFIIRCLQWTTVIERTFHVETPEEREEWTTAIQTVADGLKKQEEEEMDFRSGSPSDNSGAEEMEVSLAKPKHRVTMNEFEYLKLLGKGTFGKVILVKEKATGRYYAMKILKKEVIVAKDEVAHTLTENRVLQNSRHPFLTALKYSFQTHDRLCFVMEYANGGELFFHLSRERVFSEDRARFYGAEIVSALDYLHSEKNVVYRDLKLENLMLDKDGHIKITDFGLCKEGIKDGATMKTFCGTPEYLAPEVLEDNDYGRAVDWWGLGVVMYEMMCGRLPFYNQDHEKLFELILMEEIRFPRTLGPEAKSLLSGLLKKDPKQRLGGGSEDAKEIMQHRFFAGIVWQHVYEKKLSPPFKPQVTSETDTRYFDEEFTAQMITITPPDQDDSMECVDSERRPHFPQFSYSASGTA
Sequence of Serine/threonine-protein kinase PAK 5 (Homo sapiens) (Q9P286 whole entry, looked up): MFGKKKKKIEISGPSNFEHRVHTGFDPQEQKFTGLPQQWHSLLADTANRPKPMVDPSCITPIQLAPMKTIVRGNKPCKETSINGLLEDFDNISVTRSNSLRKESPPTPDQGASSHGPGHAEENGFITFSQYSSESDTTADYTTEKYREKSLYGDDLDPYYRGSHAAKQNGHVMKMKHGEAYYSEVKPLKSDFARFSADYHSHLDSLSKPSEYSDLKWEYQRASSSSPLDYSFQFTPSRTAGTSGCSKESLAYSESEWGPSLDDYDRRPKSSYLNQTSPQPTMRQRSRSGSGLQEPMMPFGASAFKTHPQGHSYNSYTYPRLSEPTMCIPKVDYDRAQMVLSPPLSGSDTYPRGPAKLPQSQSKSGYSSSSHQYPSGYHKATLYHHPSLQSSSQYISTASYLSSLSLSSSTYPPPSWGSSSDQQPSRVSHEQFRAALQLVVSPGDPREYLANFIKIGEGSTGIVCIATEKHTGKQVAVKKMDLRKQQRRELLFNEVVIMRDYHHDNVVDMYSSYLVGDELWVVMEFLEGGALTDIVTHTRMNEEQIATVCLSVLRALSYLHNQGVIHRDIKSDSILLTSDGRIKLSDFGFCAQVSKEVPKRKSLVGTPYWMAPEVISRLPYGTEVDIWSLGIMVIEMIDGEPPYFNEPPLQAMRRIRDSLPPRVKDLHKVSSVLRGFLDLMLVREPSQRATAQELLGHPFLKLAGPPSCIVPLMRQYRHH
Sequence of Serine/threonine-protein kinase pim-2 (Homo sapiens) (Q9P1W9 whole entry, looked up): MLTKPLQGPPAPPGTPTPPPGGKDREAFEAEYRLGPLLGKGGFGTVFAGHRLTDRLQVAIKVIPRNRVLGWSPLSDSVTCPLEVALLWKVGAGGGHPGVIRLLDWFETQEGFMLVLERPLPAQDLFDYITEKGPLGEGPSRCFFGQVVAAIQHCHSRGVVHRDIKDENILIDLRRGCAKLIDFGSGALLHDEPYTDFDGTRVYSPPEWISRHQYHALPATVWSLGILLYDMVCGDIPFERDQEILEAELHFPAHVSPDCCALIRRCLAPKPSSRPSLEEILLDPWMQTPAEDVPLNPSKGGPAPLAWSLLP
Sequence of Tyrosine-protein kinase Fyn (Homo sapiens) (P06241 2-537 limits assumed): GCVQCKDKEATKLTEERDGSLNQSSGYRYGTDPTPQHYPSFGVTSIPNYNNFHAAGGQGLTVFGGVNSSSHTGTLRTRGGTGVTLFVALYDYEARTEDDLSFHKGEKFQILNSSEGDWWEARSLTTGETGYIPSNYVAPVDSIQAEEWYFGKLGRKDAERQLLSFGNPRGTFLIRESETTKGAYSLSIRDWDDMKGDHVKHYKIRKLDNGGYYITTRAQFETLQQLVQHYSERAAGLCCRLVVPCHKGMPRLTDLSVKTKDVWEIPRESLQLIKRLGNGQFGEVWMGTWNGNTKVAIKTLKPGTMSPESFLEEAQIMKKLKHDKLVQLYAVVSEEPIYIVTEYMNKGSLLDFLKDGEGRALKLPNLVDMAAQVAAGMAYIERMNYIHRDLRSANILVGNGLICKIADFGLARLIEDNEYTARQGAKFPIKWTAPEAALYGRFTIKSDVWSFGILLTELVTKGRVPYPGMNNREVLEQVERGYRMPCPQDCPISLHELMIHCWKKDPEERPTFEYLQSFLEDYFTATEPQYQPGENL
Sequence of Activated CDC42 kinase 1 (Homo sapiens) (Q07912 whole entry, looked up): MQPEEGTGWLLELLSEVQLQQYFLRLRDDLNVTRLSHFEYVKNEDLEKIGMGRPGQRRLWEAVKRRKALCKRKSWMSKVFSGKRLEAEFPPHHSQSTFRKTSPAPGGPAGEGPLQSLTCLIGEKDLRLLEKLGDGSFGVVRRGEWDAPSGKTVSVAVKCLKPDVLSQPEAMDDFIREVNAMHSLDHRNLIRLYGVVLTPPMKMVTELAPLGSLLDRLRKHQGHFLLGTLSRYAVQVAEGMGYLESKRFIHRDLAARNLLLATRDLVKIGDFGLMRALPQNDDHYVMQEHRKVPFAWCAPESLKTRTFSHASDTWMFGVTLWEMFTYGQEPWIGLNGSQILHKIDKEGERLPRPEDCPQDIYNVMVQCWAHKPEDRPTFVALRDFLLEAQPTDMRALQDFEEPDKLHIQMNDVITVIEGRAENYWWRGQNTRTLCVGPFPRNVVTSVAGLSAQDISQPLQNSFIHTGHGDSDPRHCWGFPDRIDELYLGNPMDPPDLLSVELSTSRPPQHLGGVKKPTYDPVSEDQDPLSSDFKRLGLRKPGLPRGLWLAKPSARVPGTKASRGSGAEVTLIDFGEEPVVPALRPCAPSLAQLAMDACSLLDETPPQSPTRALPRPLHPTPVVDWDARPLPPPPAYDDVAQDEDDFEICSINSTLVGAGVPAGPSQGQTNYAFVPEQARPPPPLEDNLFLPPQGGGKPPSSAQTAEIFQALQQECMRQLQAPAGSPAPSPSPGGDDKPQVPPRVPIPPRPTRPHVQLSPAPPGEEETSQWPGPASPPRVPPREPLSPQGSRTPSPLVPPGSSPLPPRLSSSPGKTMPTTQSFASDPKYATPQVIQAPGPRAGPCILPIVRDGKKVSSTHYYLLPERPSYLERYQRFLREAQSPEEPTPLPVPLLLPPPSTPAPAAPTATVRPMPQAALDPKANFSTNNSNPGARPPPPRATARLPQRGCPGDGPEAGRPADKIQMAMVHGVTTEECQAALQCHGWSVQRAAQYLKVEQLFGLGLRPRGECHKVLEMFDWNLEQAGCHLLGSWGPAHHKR

Take `C[C@H](Nc1ncnc2nc[nH]c12)c1cc2cccc(Cl)c2c(=O)n1-c1ccccc1`: the Activity in experiment [1] was found to be 95.5%; in experiment [2], 99.6%; in experiment [3], 89%; in experiment [4], 103%; in experiment [5], 98.3%; in experiment [6] it was 101%. The values for the Activity in experiment [7] and in experiment [8] were 98.1% and 111%, respectively.

For `CC[C@H](Nc1ncnc2[nH]cnc12)c1nc2cccc(F)c2c(=O)n1-c1ccccc1`, the Activity in experiment [1] amounted to 90.7%; in experiment [2], 99%; in experiment [3], 87.8%; in experiment [4], 100%; in experiment [5] it was 95.2%; in experiment [6] it was 101%. The Activity in experiment [7] amounted to 100%; in experiment [8], 96.9%.

For `CC(C)Oc1ccc(-c2nn([C@@H](C)c3oc4ccc(F)cc4c(=O)c3-c3cccc(F)c3)c3ncnc(N)c23)cc1F` [UMBRALISIB], the Activity is 93.6% in experiment [1]; 93.3% in experiment [2]; 87% in experiment [3]; 99.7% in experiment [4]; 99.3% in experiment [5]; 96.4% in experiment [6]. Moreover, the Activity in experiment [7] worked out at 101%; in experiment [8], 100%.
